ChEMBL document CHEMBL3232788, “1-(2-Hydroxy-2-methyl-3-phenoxypropanoyl)indoline-4-carbonitrile derivatives as potent and tissue selective androgen receptor modulators” (J Med Chem, 2014)
≈ marks a conversion by molar mass, not a printed value. Calls of active or inactive are those of the source. No cut-off for these calls is given here.

Key:
[1] = Toxicity in sc dosed Sprague-Dawley rat administered qd for 14 days; assay type: organism-based; settings: in vivo
[2] = test system: Rattus norvegicus; test: Toxicity in Sprague-Dawley rat assessed as effect on serum total cholesterol level at 3 to 100 mg/kg, sc qd for 14 days relative to vehicle-treated control; assay type: organism-based; set-up: dose 3-100 mg/kg, route subcutaneous; settings: in vivo, 336 h
[3] = Half life in Sprague-Dawley rat at 10 mg/kg, sc; assay type: ADME, organism-based; set-up: dose 10 mg/kg, route subcutaneous; settings: in vivo
[4] = Tmax in Sprague-Dawley rat at 6 mg/kg, po; assay type: ADME, organism-based; set-up: dose 6 mg/kg, route oral; settings: in vivo
[5] = Cmax in Sprague-Dawley rat at 10 mg/kg, sc; assay type: ADME, organism-based; set-up: dose 10 mg/kg, route subcutaneous; settings: in vivo
[6] = AUC in Sprague-Dawley rat at 10 mg/kg, sc; assay type: ADME, organism-based; set-up: dose 10 mg/kg, route subcutaneous; settings: plasma
[7] = target: T1, Cytochrome P450 2C8 (Homo sapiens, UniProt P10632); test: Inhibition of CYP2C8 (unknown origin) at 3 uM; assay type: ADME
T1 sequence (P10632 whole entry): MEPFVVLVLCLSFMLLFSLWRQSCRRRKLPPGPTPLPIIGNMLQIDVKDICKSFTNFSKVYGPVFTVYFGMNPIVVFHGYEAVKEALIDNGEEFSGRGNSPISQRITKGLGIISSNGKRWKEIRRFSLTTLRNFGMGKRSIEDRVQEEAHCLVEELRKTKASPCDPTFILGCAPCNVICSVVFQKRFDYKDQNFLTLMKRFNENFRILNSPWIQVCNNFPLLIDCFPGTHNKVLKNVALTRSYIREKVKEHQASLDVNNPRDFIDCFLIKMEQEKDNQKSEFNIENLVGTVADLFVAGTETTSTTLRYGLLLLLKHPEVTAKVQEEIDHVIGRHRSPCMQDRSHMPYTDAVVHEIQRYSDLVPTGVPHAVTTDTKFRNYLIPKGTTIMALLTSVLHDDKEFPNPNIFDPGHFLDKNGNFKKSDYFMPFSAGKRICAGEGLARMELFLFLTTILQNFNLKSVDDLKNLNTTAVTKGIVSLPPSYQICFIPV

[8] = test system: Rattus norvegicus; test: Increase in prostate tissue weight in orchidectomized Sprague-Dawley rat at 3 to 30 mg/kg, sc qd for 4 days relative to vehicle-treated control; assay type: ADME, organism-based, Prostate gland; set-up: dose 3-30 mg/kg, route subcutaneous; settings: in vivo, 96 h
[9] = test system: Rattus norvegicus; test: Increase in seminal vesicle weight in orchidectomized Sprague-Dawley rat at 3 to 30 mg/kg, sc qd for 4 days relative to vehicle-treated control; assay type: ADME, organism-based; set-up: dose 3-30 mg/kg, route subcutaneous; settings: in vivo, 96 h
[10] = target: T2, Cytochrome P450 1A2 (Homo sapiens, UniProt P05177); test: Inhibition of CYP1A2 (unknown origin) at 3 uM; assay type: ADME
T2 sequence (P05177 whole entry): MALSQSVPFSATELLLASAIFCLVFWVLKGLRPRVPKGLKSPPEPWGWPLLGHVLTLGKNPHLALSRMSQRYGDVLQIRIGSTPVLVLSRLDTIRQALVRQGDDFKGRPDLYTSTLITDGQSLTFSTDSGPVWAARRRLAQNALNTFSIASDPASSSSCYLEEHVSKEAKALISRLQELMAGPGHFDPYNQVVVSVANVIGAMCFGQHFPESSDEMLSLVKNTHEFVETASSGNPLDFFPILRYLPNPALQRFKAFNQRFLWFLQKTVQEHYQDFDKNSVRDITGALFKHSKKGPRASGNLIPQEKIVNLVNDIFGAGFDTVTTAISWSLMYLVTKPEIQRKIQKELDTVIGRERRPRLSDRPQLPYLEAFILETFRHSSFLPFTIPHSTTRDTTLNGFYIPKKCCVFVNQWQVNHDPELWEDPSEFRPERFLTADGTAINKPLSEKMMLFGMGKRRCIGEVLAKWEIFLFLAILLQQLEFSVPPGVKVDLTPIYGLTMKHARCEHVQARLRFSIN

[11] = Cytotoxicity against human THLE cells; assay type: cell-based
[12] = Volume of distribution at steady state in Sprague-Dawley rat at 2 mg/kg, iv; assay type: ADME, organism-based; set-up: dose 2 mg/kg, route intravenous; settings: in vivo, read-out: Vdss
[13] = Half life in Sprague-Dawley rat at 2 mg/kg, iv; assay type: ADME, organism-based; set-up: dose 2 mg/kg, route intravenous; settings: in vivo
[14] = target: Cytochrome P450 3A4 (Homo sapiens, UniProt P08684); test: Inhibition of CYP3A4 (unknown origin) at 3 uM; assay type: ADME
[15] = target: Voltage-gated inwardly rectifying potassium channel KCNH2 (Homo sapiens, UniProt Q12809); test: Binding affinity to human ERG by dofetilide binding assay
[16] = target: T3, Androgen receptor (Homo sapiens, UniProt P10275); test: Binding affinity to human AR NTD (1 to 561 aa) expressed in CV1 cells coexpressing human AR-LBD (644-919 aa) assessed as N/C-termini interaction by androgenic assay; assay type: cell-based, CV-1
T3 sequence (P10275 whole entry): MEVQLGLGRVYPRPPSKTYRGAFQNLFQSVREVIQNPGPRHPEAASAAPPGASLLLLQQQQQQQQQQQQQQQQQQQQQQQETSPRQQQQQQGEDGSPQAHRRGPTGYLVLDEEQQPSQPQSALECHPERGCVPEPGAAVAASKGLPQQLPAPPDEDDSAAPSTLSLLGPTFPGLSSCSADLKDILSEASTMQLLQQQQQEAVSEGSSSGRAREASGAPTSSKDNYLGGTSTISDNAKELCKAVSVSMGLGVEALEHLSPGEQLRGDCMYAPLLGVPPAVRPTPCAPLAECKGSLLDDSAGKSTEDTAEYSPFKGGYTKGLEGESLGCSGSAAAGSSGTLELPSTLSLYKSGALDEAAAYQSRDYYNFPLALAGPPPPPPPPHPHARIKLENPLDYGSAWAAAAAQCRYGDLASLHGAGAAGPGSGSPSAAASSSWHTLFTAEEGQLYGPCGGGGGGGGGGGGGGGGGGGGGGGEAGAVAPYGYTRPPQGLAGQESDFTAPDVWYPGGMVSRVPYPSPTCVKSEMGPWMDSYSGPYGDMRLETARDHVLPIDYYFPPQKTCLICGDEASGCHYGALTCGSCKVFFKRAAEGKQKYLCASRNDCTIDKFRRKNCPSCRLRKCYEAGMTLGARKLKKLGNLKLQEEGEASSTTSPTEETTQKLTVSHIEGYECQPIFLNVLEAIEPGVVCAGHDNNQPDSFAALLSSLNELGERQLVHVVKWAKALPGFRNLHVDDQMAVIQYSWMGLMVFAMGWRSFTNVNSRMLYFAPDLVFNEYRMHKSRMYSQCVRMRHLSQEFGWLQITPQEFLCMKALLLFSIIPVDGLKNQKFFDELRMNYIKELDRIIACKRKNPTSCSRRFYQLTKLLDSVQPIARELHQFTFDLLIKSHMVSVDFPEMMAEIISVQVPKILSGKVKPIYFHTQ

[17] = target: T3, Androgen receptor; test: Displacement of [3H]mibolerone from full length human AR expressed in COS cells after 3.5 hrs by liquid scintillation counting; assay type: cell-based
[18] = Half life in Sprague-Dawley rat at 6 mg/kg, po; assay type: ADME, organism-based; set-up: dose 6 mg/kg, route oral; settings: in vivo
[19] = Cmax in Sprague-Dawley rat at 6 mg/kg, po; assay type: ADME, organism-based; set-up: dose 6 mg/kg, route oral; settings: in vivo
[20] = Tmax in Sprague-Dawley rat at 10 mg/kg, sc; assay type: ADME, organism-based; set-up: dose 10 mg/kg, route subcutaneous; settings: in vivo
[21] = Oral bioavailability in Sprague-Dawley rat at 6 mg/kg; assay type: ADME, organism-based; settings: in vivo
[22] = Aqueous solubility of the compound at pH 6.5; assay type: physicochemical
[23] = target: T3, Androgen receptor; test: Agonist activity at human AR expressed in CV1 cells after 17 hrs by luciferase reporter gene assay; assay type: cell-based, CV-1
[24] = test system: Rattus norvegicus; test: Toxicity in Sprague-Dawley rat assessed as effect on serum triglyceride level at 3 to 100 mg/kg, sc qd for 14 days relative to vehicle-treated control; assay type: organism-based; set-up: dose 3-100 mg/kg, route subcutaneous; settings: in vivo, 336 h
[25] = target: Cytochrome P450 2C9 (Homo sapiens, UniProt P11712); test: Inhibition of CYP2C9 (unknown origin) at 3 uM; assay type: ADME
[26] = test system: Rattus norvegicus; test: Toxicity in Sprague-Dawley rat assessed as effect on serum luteinizing hormone level at 100 mg/kg, sc qd for 14 days relative to vehicle-treated control; assay type: organism-based; set-up: dose 100 mg/kg, route subcutaneous; settings: in vivo, 336 h
[27] = Bioavailability in Sprague-Dawley rat at 10 mg/kg, sc; assay type: ADME, organism-based; settings: in vivo
[28] = Clearance in human liver microsomes; assay type: ADME; settings: read-out: CLH
[29] = AUC in Sprague-Dawley rat at 6 mg/kg, po; assay type: ADME, organism-based; set-up: dose 6 mg/kg, route oral; settings: plasma
[30] = AUC in Sprague-Dawley rat at 2 mg/kg, iv; assay type: ADME, organism-based; set-up: dose 2 mg/kg, route intravenous; settings: plasma
[31] = test system: Rattus norvegicus; test: Toxicity in Sprague-Dawley rat assessed as effect on serum HDL level at 3 to 100 mg/kg, sc qd for 14 days relative to vehicle-treated control; assay type: organism-based; set-up: dose 3-100 mg/kg, route subcutaneous; settings: in vivo, 336 h
[32] = target: Cytochrome P450 2D6 (Homo sapiens, UniProt P10635); test: Inhibition of CYP2D6 (unknown origin) at 3 uM; assay type: ADME
[33] = test system: Rattus norvegicus; test: Toxicity in Sprague-Dawley rat assessed as effect on serum LDL level at 3 to 100 mg/kg, sc qd for 14 days relative to vehicle-treated control; assay type: organism-based; set-up: dose 3-100 mg/kg, route subcutaneous; settings: in vivo, 336 h
[34] = test system: Rattus norvegicus; test: Toxicity in Sprague-Dawley rat assessed as effect on serum luteinizing hormone level at 3 to 10 mg/kg, sc qd for 14 days relative to vehicle-treated control; assay type: organism-based; set-up: dose 3-10 mg/kg, route subcutaneous; settings: in vivo, 336 h
[35] = test system: Rattus norvegicus; test: Increase in levator ani muscle weight in orchidectomized Sprague-Dawley rat at 3 to 30 mg/kg, sc qd for 4 days relative to vehicle-treated control; assay type: functional, organism-based

Voltage-gated inwardly rectifying potassium channel KCNH2, sequence (Q12809 whole entry, the tested form may be a part): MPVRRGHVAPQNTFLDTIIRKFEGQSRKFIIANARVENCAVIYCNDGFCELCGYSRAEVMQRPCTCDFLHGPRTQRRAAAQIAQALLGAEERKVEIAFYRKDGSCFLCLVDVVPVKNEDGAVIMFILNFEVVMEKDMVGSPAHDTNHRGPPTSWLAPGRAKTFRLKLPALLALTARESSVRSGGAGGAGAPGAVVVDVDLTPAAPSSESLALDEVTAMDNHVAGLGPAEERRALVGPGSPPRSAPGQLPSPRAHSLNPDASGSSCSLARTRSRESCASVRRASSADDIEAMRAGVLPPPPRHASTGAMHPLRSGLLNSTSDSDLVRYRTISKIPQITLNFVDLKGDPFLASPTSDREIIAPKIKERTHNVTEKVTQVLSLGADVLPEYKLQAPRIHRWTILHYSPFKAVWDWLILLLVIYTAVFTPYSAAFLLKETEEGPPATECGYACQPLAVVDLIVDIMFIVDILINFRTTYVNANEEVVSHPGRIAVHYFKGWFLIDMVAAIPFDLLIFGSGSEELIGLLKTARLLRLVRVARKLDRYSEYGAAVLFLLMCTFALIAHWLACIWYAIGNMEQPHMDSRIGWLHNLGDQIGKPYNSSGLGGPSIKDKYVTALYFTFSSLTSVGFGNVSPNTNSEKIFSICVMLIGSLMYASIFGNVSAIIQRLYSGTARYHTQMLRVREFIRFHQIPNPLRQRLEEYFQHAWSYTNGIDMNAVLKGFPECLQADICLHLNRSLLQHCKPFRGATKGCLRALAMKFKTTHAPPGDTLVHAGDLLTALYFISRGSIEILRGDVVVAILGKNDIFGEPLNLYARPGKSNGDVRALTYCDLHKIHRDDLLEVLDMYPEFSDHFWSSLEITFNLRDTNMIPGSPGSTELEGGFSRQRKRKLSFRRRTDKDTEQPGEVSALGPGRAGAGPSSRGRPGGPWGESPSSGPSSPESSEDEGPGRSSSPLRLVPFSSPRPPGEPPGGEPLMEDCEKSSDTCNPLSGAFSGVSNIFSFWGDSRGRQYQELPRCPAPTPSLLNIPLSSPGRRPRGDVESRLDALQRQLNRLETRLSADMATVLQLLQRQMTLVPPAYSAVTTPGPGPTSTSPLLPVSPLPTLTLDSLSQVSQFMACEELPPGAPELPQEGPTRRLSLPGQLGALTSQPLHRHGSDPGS
Cytochrome P450 2C9, sequence (P11712 whole entry): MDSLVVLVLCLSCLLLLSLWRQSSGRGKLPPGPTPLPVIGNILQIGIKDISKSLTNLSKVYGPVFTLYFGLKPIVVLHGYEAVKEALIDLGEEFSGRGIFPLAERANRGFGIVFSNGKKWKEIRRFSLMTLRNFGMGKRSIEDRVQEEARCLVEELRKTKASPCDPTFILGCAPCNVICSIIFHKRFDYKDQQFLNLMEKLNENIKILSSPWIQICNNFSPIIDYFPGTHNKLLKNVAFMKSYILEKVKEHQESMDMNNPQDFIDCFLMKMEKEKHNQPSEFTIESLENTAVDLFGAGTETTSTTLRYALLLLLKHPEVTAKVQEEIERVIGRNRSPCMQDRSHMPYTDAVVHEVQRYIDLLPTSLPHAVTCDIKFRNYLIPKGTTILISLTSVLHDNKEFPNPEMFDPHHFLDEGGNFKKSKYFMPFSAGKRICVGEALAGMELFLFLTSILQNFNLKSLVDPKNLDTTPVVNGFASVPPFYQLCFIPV
Cytochrome P450 3A4, sequence (P08684 whole entry): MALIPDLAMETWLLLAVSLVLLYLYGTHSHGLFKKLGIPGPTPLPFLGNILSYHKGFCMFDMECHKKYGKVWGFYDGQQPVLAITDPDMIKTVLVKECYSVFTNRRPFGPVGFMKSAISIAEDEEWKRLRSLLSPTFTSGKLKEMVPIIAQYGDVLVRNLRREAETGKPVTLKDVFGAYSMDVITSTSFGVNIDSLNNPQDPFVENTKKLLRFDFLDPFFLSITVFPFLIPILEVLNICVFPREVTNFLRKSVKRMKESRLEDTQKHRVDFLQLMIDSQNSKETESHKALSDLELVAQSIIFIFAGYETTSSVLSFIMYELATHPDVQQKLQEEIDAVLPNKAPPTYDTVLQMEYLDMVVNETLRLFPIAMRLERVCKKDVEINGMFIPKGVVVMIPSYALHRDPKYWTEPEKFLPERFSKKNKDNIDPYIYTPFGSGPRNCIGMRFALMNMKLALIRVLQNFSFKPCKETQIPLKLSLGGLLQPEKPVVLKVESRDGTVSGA
Cytochrome P450 2D6, sequence (P10635 whole entry): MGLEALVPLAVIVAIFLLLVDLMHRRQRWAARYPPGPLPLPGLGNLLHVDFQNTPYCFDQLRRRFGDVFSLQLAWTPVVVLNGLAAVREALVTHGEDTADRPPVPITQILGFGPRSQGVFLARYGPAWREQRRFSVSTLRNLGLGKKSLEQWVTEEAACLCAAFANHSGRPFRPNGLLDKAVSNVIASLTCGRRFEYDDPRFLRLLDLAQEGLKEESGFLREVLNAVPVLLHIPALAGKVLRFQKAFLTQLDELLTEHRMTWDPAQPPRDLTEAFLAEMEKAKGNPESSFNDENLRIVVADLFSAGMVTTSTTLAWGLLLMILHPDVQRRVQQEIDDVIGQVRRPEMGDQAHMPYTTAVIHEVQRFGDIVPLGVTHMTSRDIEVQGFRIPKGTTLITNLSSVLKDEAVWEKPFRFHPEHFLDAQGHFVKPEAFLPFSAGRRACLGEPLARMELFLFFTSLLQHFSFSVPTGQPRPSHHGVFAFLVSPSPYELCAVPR

Which results are given for `C[C@](O)(COc1ccc(F)cc1)C(=O)N1CCc2c(C#N)cccc21`?
MTD at 336 h [1]: 100 mg/kg; Activity [2]: Non-toxic; half-life [3]: 6 h; Tmax [4]: 8 h; Cmax [5]: 166 ng/mL; AUC [6]: 2030 ng·h/mL; inhibition (INH) [7]: Not Active; Activity [8]: Non-toxic; Activity [9]: Non-toxic; inhibition (INH) [10]: Not Active; IC50 [11]: > 300000 nM; Vd [12]: 6 L/kg; half-life [13]: 5 h; inhibition (INH) [14]: Not Active; IC50 [15]: > 100000 nM; EC50 [16]: > 10000 nM; IC50 [17]: 12.7 nM; half-life [18]: 5 h; Cmax [19]: 254 ng/mL; Tmax [20]: 4 h; bioavailability [21]: > 100%; solubility [22]: 14 µM (≈ 4.76 µg/mL); EC50 [23]: 2.5 nM; Activity [24]: Non-toxic; inhibition (INH) [25]: Not Active; Activity [26]: Non-toxic; bioavailability [27]: 37%; microsomal CLint [28]: 21 µL/min/mg; AUC [29]: 3750 ng·h/mL; AUC [30]: 1100 ng·h/mL; Activity [31]: Non-toxic; inhibition (INH) [32]: Not Active; Activity [33]: Non-toxic; Activity [34]: Non-toxic; Activity [35]: Active
